Among the data in patent US7229990B2, “Bicyclic heteroaromatic compounds” (N.V. Organon, priority 2000, dated 2007) are EC50 values, retold here.

This test concerns the target T1, human LH receptor (Homo sapiens, UniProt P22888).
T1 construct: expressed in transfected cells; host or cells: Chinese Hamster Ovary (CHO) cells, stably transfected; cotransfected with a CRE-luciferase reporter
Description: CHO-LH in vitro bioactivity (CRE-luciferase reporter, LH agonistic activity). In kind it is cell-based. How it is done: LH agonistic activity of compounds was tested in Chinese Hamster Ovary (CHO) cells stably transfected with the human LH receptor and cotransfected with a cAMP responsive, element (CRE)/promotor directing the expression of a firefly luciferase reporter gene. Binding of ligand to the Gs-coupled LH receptor will result in an increase of cAMP, which in turn will induce an increased transactivation of the luciferase reporter construct. The luciferase signal was quantified using a luminescence counter. For test compounds, EC50 values (concentration of test compound causing half-maximal (50%) stimulation) were calculated. For that purpose the software program GraphPad PRISM, version 3.0 (GraphPad software Inc., San Diego) was used.
In general terms: Reporter assays use an easily measured gene product as a stand-in for the process of interest.

The mark [1] stands for this setting: CHO cells stably transfected with the human LH receptor and cotransfected with CRE/promotor firefly luciferase reporter, luciferase signal, read-out: EC50 value (concentration of test compound causing half-maximal (50%) stimulation).

Read-outs that look alike come from different tables or passages of the source.

T1 sequence (P22888 27-699): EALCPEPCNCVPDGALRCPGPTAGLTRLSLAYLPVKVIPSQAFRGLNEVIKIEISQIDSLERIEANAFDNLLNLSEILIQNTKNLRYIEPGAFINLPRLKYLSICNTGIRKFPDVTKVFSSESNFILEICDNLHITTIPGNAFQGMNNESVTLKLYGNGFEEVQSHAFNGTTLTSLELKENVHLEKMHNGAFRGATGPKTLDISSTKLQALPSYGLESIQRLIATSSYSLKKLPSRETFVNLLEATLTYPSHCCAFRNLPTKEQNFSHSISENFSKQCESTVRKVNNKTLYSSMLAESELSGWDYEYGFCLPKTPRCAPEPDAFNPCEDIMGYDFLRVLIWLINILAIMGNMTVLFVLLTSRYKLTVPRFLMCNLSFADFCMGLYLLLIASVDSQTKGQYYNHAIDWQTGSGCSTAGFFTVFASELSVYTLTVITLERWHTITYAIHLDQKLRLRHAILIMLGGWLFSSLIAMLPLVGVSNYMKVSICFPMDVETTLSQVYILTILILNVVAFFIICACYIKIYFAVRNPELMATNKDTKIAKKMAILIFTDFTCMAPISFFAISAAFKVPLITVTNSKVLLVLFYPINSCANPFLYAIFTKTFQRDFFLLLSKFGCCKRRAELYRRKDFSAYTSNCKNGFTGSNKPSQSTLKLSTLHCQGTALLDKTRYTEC

Take `CCN(CC)C(=O)Oc1cccc(-c2nc(SC)nc3sc(C(=O)NC(C)(C)C)c(N)c23)c1` [Example 7]: the EC50 was under 10 nM.
Take `COC(=O)Nc1cccc(-c2nc(SC)nc3sc(C(=O)NC(C)(C)C)c(N)c23)c1` [Example 15, tert-Butyl 5-amino-2-methylthio-4-(3-(methoxycarbonylamino)-phenyl)-thieno[2,3-]pyrimidine-6-carboxamide]: the EC50 under setting [1] was under 10 nM.
Still for that read-out and setting: for `C=CCOC(=O)Nc1cccc(-c2nc(SC)nc3sc(C(=O)NC(C)(C)C)c(N)c23)c1` [Example 16, tert-Butyl 5-amino-2-methylthio-4-(3-(allyloxycarbonylamino)-phenyl)-thieno[2,3-d]pyrimidine-6-carboxamide] the value was under 10 nM; for `CCOC(=O)Nc1cccc(-c2nc(SC)nc3sc(C(=O)NC(C)(C)C)c(N)c23)c1` [Example 18, tert-Butyl 5-amino-2-methylthio-4-(3-(ethoxycarbonylamino)-phenyl)-thieno[2,3-d]pyrimidine-6-carboxamide], under 10 nM.
For the compound `CSc1nc(-c2cccc(NC(=O)N3CCOCC3)c2)c2c(N)c(C(=O)NC(C)(C)C)sc2n1` [Example 21], the EC50 under setting [1] is under 10 nM.
For `CSc1nc(-c2cccc(NC(=O)N3CC=CCC3)c2)c2c(N)c(C(=O)NC(C)(C)C)sc2n1` [Example 23, tert-Butyl 5-amino-2-methylthio-4-(3-(1,2,3,6-tetrahydropyridinocarbonylamino)-phenyl)-thieno[2,3-d]pyrimidine-6-carboxamide], under setting [1], the EC50 is under 10 nM.
Turning to `CN(C)C(=O)Nc1cccc(-c2nc(-c3ccccc3)nc3sc(C(=O)NC(C)(C)C)c(N)c23)c1` [Example 32, tert-Butyl 5-amino-2-phenyl-4-(3-((N,N-dimethylamino)-carbonylamino)-phenyl)-thieno[2,3-d]pyrimidine-6-carboxamide], the EC50 under setting [1] is under 10 nM.
